Laboratory results: ChEMBL document CHEMBL1201862, “PubChem BioAssay data set” (2004)
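All cell lines were grown in 96-well plates and treated with compound for 48 hours. GI50: concentration for 50% inhibition of growth.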 Calls of active or inactive are those of the source. No stated cut-off is given here; in the data, active = GI50 up to about 1.1 µM and inactive = higher.

What was measured:
Test in all cases: inhibition of tumour cell growth, NCI panel, 48 h
SF-268 = tested on: SF-268
MDA-N = tested on: MDA-N
RXF 393 = tested on: RXF 393
UACC-257 = tested on: UACC-257
TK-10 = tested on: TK-10
UO-31 = tested on: UO-31
NCI-H23 = tested on: NCI-H23
RPMI-8226 = tested on: RPMI-8226
HOP-62 = tested on: HOP-62
OVCAR-8 = tested on: OVCAR-8
K562 = tested on: K562
CCRF-CEM = tested on: CCRF-CEM
SK-MEL-5 = tested on: SK-MEL-5
ACHN = tested on: ACHN
SF-295 = tested on: SF-295
IGROV-1 = tested on: IGROV-1
786-0 = tested on: 786-0
SN12C = tested on: SN12C
OVCAR-5 = tested on: OVCAR-5
EKVX = tested on: EKVX

Measured: GI50

CCNc1ncnc2sc(SCc3ccccc3)nc12
inactive: SF-268 > 100 µM | MDA-N > 100 µM | RXF 393 > 100 µM | UACC-257 79.1 µM | TK-10 60.7 µM | UO-31 36.8 µM | NCI-H23 83.8 µM | RPMI-8226 43.3 µM | HOP-62 > 100 µM | OVCAR-8 80.9 µM | K562 81.7 µM | CCRF-CEM 33.9 µM | SK-MEL-5 25.6 µM | ACHN 70.6 µM | SF-295 89.5 µM | IGROV-1 > 100 µM | 786-0 > 100 µM | SN12C > 100 µM | OVCAR-5 > 100 µM | EKVX 42 µM

CC1=C2C(=CO[C@H](C)[C@H]2C)C(O)=C(C(=O)O)C1=O [CITRININ]
inactive: SF-268 7 µM | MDA-N 26.2 µM | RXF 393 13.2 µM | UACC-257 29.7 µM | TK-10 24.5 µM | UO-31 48.3 µM | NCI-H23 20.5 µM | RPMI-8226 15.8 µM | HOP-62 17.1 µM | OVCAR-8 13.2 µM | K562 15.3 µM | CCRF-CEM 14.8 µM | SK-MEL-5 12.8 µM | ACHN 21 µM | SF-295 35.8 µM | IGROV-1 18.6 µM | 786-0 24.5 µM | SN12C 21.7 µM | OVCAR-5 59.8 µM | EKVX 18.7 µM

Cc1cc(O)c2c(c1O)C(=O)c1cccc(O)c1C2=O [ISLANDICIN]
inactive: SF-268 > 100 µM | MDA-N > 100 µM | RXF 393 > 100 µM | UACC-257 > 100 µM | TK-10 > 100 µM | UO-31 > 100 µM | NCI-H23 > 100 µM | RPMI-8226 > 100 µM | HOP-62 > 100 µM | OVCAR-8 > 100 µM | K562 > 100 µM | CCRF-CEM > 100 µM | SK-MEL-5 > 100 µM | ACHN > 100 µM | SF-295 > 100 µM | IGROV-1 > 100 µM | 786-0 > 100 µM | SN12C > 100 µM | OVCAR-5 > 100 µM | EKVX > 100 µM

COc1cc2ccc(=O)oc2cc1O [SCOPOLETIN]
inactive: SF-268 92.3 µM | MDA-N > 100 µM | RXF 393 128 µM | UACC-257 71.9 µM | TK-10 > 100 µM | UO-31 38 µM | NCI-H23 69 µM | RPMI-8226 46.1 µM | HOP-62 134 µM | OVCAR-8 52.1 µM | K562 152 µM | CCRF-CEM 30.4 µM | SK-MEL-5 78 µM | ACHN > 100 µM | SF-295 19.7 µM | IGROV-1 69.3 µM | 786-0 > 100 µM | SN12C 51.4 µM | OVCAR-5 156 µM | EKVX 57.5 µM
